One assay concerns the target T1, Cannabinoid-1 receptor (CB1R) (Rattus norvegicus, UniProt P20272).
T1 construct: The tissue obtained from the brain of SD rats was homogenized; from tissue; host or cells: brain of SD rats (membrane pellet of the homogenate)
In words: Cannabinoid-1 receptor (CB1R) binding affinity assay ([3H]CP-55940, rat CB-1 receptor binding protocol). The conditions noted are these: IC50(nM), brain tissue of SD rats, [3H]CP-55940, 30° C. 60 min.
T1 sequence (P20272 whole entry): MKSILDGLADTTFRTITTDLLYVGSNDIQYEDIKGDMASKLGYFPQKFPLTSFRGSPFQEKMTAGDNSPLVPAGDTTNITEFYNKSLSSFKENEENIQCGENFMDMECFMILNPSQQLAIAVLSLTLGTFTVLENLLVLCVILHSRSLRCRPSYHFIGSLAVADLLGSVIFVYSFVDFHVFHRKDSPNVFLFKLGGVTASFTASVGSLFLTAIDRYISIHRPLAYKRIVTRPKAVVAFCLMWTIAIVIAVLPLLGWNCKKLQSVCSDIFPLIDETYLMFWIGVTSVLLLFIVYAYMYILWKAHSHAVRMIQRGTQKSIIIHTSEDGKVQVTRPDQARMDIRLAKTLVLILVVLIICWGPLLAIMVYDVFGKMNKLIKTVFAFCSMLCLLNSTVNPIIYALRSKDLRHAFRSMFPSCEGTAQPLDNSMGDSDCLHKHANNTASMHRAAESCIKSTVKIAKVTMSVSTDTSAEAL
`CC(=O)OCc1c(-c2nnc(C3(c4ccc(Cl)cc4)CC3)o2)nn(-c2ccc(Cl)cc2Cl)c1-c1ccc(Cl)cc1` [Example 197, (5-(4-chlorophenyl)-3-(5-(1-(4-chlorophenyl)cyclopropyl)-1,3,4-oxadiazol-2-yl)-1-(2,4-dichlorophenyl)-1H-pyrazol-4-yl)methyl acetate] displayed an IC50 of 7.07 nM.

The same assay, now with this note: brain tissue of SD rats, [3H]CP-55940, 30° C. 60 min; read-out: IC50.
`CC(=O)C1(c2nnc(-c3nn(-c4ccc(Cl)cc4Cl)c(-c4ccc(Cl)cc4)c3C)o2)CC1` [Example 286, 1-(1-(5-(5-(4-chlorophenyl)-1-(2,4-dichlorophenyl)-4-methyl-1H-pyrazol-3-yl)-1,3,4-oxadiazol-2-yl)cyclopropyl)ethanone]: the IC50 is 9.36 nM.

For `C=CCOC(C)(C)c1nnc(-c2nn(-c3ccc(Cl)cc3Cl)c(-c3ccc(Cl)cc3)c2CC)o1` [Example 239, 2-(2-(allyloxy)propan-2-yl)-5-(5-(4-chlorophenyl)-1-(2,4-dichlorophenyl)-4-ethyl-1H-pyrazol-3-yl)-1,3,4-oxadiazole], the IC50 amounted to 4.48 nM.

As for `Cc1c(-c2nnc(C3CCOCC3)o2)nn(-c2ccc(Cl)cc2Cl)c1-c1ccc(Cl)cc1` [Example 23, 2-(5-(4-Chlorophenyl)-1-(2,4-dichlorophenyl)-4-methyl-1H-pyrazol-3-yl)-5-(tetrahydro-2H-pyran-4-yl)-1,3,4-oxadiazole], the IC50 was 163 nM.

Consider `Clc1ccc(-c2c(Cn3cncn3)c(-c3nnc(C4CCC4)o3)nn2-c2ccc(Cl)cc2Cl)cc1` [Example 315, 2-(4-((1H-1,2,4-triazol-1-yl)methyl)-5-(4-chlorophenyl)-1-(2,4-dichlorophenyl)-1H-pyrazol-3-yl)-5-cyclobutyl-1,3,4-oxadiazole], for which the IC50 was 3.42 nM.

Take `CC(O)c1c(-c2nnc(C(C)(C)C)o2)nn(-c2ccc(Cl)cc2Cl)c1-c1ccc(Br)cc1` (stereo not drawn) [Example 208, 1-(5-(4-bromophenyl)-3-(5-tert-butyl-1,3,4-oxadiazol-2-yl)-1-(2,4-dichlorophenyl)-1H-pyrazol-4-yl)ethanol]: the IC50 is 6.72 nM.

Consider `Cc1c(-c2nnnn2CCc2ccccc2)nn(-c2ccc(Cl)cc2Cl)c1-c1ccc(Cl)cc1` [Example 591, 5-(5-(4-Chlorophenyl)-1-(2,4-dichlorophenyl)-4-methyl-1H-pyrazol-3-yl)-1-phenethyl-1H-tetrazole], for which the IC50 turned out to be 135 nM.

With `Cc1c(-c2nnc(C3CCC3)s2)nn(-c2ccc(Cl)cc2)c1-c1ccc(Br)cc1` [Example 424, 2-(5-(4-bromophenyl)-1-(4-chlorophenyl)-4-methyl-1H-pyrazol-3-yl)-5-cyclobutyl-1,3,4-thiadiazole], the half-inhibitory concentration (IC50) is 966 nM.

In the case of `CC(O)c1c(-c2nnc(C(C)(C)C)o2)nn(-c2ccc(Cl)cc2Cl)c1-c1ccc(Cl)cc1` (stereo not drawn) [Example 207, 1-(3-(5-tert-butyl-1,3,4-oxadiazol-2-yl)-5-(4-chlorophenyl)-1-(2,4-dichlorophenyl)-1H-pyrazol-4-yl)ethanol], the IC50 was found to be 10.1 nM.

As for `CCc1c(-c2nnc(C3(CC)CC3)o2)nn(-c2ccc(Cl)cc2Cl)c1-c1ccc(Cl)cc1` [Example 278, 2-(5-(4-chlorophenyl)-1-(2,4-dichlorophenyl)-4-ethyl-1H-pyrazol-3-yl)-5-(1-ethylcyclopropyl)-1,3,4-oxadiazole], the IC50 was 17.1 nM.

`CCc1c(-c2nnc(C3CCCC3)s2)nn(-c2ccc(Cl)cc2Cl)c1-c1ccc(Cl)cc1` [Example 396, 2-(5-(4-chlorophenyl)-1-(2,4-dichlorophenyl)-4-ethyl-1H-pyrazol-3-yl)-5-cyclopentyl-1,3,4-thiadiazole]: the IC50 turned out to be 9.94 nM.

On to `Cc1c(-c2nnc(CC3CCCCC3)o2)nn(-c2ccc(Cl)cc2Cl)c1-c1ccc(Cl)cc1` [Example 24, 2-(5-(4-Chlorophenyl)-1-(2,4-dichlorophenyl)-4-methyl-1H-pyrazol-3-yl)-5-(cyclohexylmethyl)-1,3,4-oxadiazole], for which the IC50 turned out to be 22.7 nM.

For orientation: IC50 means the concentration at which inhibition is half-maximal.

The record behind these values is patent US7875647B2, “Heteroaryl-pyrazole derivatives as cannabinoid CB1 receptor antagonists” (Green Cross Corporation, priority 2006, dated 2011).
